Reference: patent publication US12509444B2, “Compounds and methods for CD73 modulation and indications therefor” (Plexxikon Inc., priority 2019, dated 2025)

Target: T1, Human CD73 (amino acid residues 27-549) (Homo sapiens, UniProt P21589)
T1 construct: Human CD73 (amino acid residues 27-549); His tag (N); made in house; host or cells: E. coli
T1 sequence (P21589 27-549): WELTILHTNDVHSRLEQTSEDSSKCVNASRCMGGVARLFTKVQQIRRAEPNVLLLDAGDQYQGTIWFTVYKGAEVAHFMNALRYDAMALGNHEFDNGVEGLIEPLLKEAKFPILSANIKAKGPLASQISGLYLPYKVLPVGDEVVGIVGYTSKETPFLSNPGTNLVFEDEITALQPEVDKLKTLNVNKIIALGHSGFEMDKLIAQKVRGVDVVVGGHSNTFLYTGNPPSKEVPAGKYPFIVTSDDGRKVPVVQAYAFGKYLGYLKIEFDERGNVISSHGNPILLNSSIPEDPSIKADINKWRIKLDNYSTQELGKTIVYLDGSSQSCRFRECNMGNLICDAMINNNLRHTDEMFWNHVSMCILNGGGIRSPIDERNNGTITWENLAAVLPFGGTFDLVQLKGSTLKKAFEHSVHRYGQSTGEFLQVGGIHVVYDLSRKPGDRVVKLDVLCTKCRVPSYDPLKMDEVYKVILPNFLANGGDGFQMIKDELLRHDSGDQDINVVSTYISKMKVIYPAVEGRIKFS
Experiment: CD73 enzymatic assay (luciferase-based indirect assay, CellTiter-Glo)
Assay type: biochemical
Conditions: 0.4 nM CD73, 150 μM AMP, 1 hour at room temperature
Experimental: CD73 enzymatic activity was measured in a luciferase-based indirect assay using CellTiter-Glo® system from Promega. The luciferase reaction in the presence of ATP is inhibited by AMP, a primary substrate of CD73. Addition of CD73 enzyme to the reaction converts AMP to adenosine, and release the inhibition, producing a luminescent signal. Inhibition of CD73 leads to the decrease of this luminescent signal.
Human CD73 (amino acid residues 27-549) with N-Terminal His tag was purified in E. coli. All the assay components were prepared in 50 mM HEPEs buffer (pH 7.4) with 0.01% Tween® 20. The CD73 enzymatic assay was performed using 0.4 nM CD73 and 150 μM AMP. 9.5 μL of CD73 protein and 9.5 μL of AMP were added to the wells of a 384 well plate containing 1 μL of various concentrations of test compound or DMSO vehicle and incubated for 1 hour at room temperature. 16 wells containing CD73, AMP and 5% DMSO served as high control. 16 wells containing AMP and 5% DMSO served as low control. Enzymatic reaction was stopped and AMP level was measured indirectly by adding 5 μL of CellTiter-Glo® 2.0 reagent and 5 μL of ATP with a final concentration of 1 μM. Following incubation of the plate at room temperature for 30 minutes, luminescent signal was read on a Tecan plate reader. The percentage inhibition at individual concentrations relative to high and low controls was calculated. The data were analyzed by using nonlinear regression to generate IC50 values.

Row | SMILES | IC50
1 | O=C(Nc1ccc(OC(F)(F)F)cc1)N[C@@H]1CCN(c2cn[nH]c(=O)c2Cl)C1 [P-0041, (R)-1-(1-(5-chloro-6-oxo-1,6-dihydropyridazin-4-yl)pyrrolidin-3-yl)-3-(4-(trifluoromethoxy)phenyl)urea] | 0.001 to 10 µM
2 | CC(C)(C)OC(=O)N[C@H]1CCN(c2cn[nH]c(=O)c2Cl)C1 [P-0002, tert-butyl (S)-(1-(5-chloro-6-oxo-1,6-dihydropyridazin-4-yl)pyrrolidin-3-yl)carbamate] | 10 to 100 µM
3 | COc1ccc(OC(=O)N[C@@H]2CCN(c3cn[nH]c(=O)c3Cl)C2)cc1 [P-0049, 4-methoxyphenyl (R)-(1-(5-chloro-6-oxo-1,6-dihydropyridazin-4-yl)pyrrolidin-3-yl)carbamate] | 0.001 to 10 µM
4 | O=C(NCCc1ccccc1)N[C@@H]1CCN(c2cn[nH]c(=O)c2Cl)C1 [P-0032, (R)-1-(1-(5-chloro-6-oxo-1,6-dihydropyridazin-4-yl)pyrrolidin-3-yl)-3-phenethylurea] | 10 to 100 µM
5 | O=C(N[C@@H]1CCN(c2cn[nH]c(=O)c2Cl)C1)OCc1ccccc1 [P-0048, benzyl (R)-(1-(5-chloro-6-oxo-1,6-dihydropyridazin-4-yl)pyrrolidin-3-yl)carbamate] | 10 to 100 µM
6 | NC(=O)C1(NC(=O)OC2CCCCC2)CCN(c2cn[nH]c(=O)c2Cl)C1 (centres unmarked) [P-0075, cyclohexyl (3-carbamoyl-1-(5-chloro-6-oxo-1,6-dihydropyridazin-4-yl)pyrrolidin-3-yl)carbamate] | 10 to 100 µM
7 | O=C(Nc1cccc(C(F)(F)F)c1)N[C@@H]1CCN(c2cn[nH]c(=O)c2Cl)C1 [P-0028, (R)-1-(1-(5-chloro-6-oxo-1,6-dihydropyridazin-4-yl)pyrrolidin-3-yl)-3-(3-(trifluoromethyl)phenyl)urea] | 10 to 100 µM
8 | C[C@H]1CN(c2cn[nH]c(=O)c2Cl)C[C@@H]1NC(=O)OC(C)(C)C [P-0060, tert-butyl ((3R,4S)-1-(5-chloro-6-oxo-1,6-dihydropyridazin-4-yl)-4-methylpyrrolidin-3-yl)carbamate] | 0.001 to 10 µM
9 | CN(C(=O)NC1CCCCC1)C1CCN(c2cn[nH]c(=O)c2Cl)C1 (centres unmarked) [P-0069, 1-(1-(5-chloro-6-oxo-1,6-dihydropyridazin-4-yl)pyrrolidin-3-yl)-3-cyclohexyl-1-methylurea] | 0.001 to 10 µM
10 | CC(C)(C)OC(=O)N[C@@H]1CCN(c2cn[nH]c(=O)c2C#N)C1 [P-0036, tert-butyl (R)-(1-(5-cyano-6-oxo-1,6-dihydropyridazin-4-yl)pyrrolidin-3-yl)carbamate] | 0.001 to 10 µM
11 | O=C(NC1CC1c1ccccc1)N[C@@H]1CCN(c2cn[nH]c(=O)c2Cl)C1 (stereo partly drawn) [P-0084, 1-((R)-1-(5-chloro-6-oxo-1,6-dihydropyridazin-4-yl)pyrrolidin-3-yl)-3-(2-phenylcyclopropyl)urea] | 0.001 to 10 µM
12 | O=C(N[C@@H]1CCN(c2cn[nH]c(=O)c2Cl)C1)Oc1ccccc1 [P-0010, phenyl (R)-(1-(5-chloro-6-oxo-1,6-dihydropyridazin-4-yl)pyrrolidin-3-yl)carbamate] | 0.001 to 10 µM
13 | O=C(NC1CC1)N[C@@H]1CCN(c2cn[nH]c(=O)c2Cl)C1 [P-0053, (R)-1-(1-(5-chloro-6-oxo-1,6-dihydropyridazin-4-yl)pyrrolidin-3-yl)-3-cyclopropylurea] | 0.001 to 10 µM

Further lines, results first:

Row | IC50 | SMILES
14 | 10 to 100 µM | O=C(NC1CCN(C(=O)C(F)(F)F)CC1)N[C@H]1CCN(c2cn[nH]c(=O)c2Cl)C1 [P-0024, (S)-1-(1-(5-chloro-6-oxo-1,6-dihydropyridazin-4-yl)pyrrolidin-3-yl)-3-(1-(2,2,2-trifluoroacetyl)piperidin-4-yl)urea]
15 | 0.001 to 10 µM | O=C(NCC1CCCC1)N[C@@H]1CCN(c2cn[nH]c(=O)c2Cl)C1 [P-0004, (R)-1-(1-(5-chloro-6-oxo-1,6-dihydropyridazin-4-yl)pyrrolidin-3-yl)-3-(cyclopentylmethyl)urea]
16 | 0.001 to 10 µM | CCCCOC(=O)N[C@@H]1CCN(c2cn[nH]c(=O)c2Cl)C1 [P-0001, butyl (R)-(1-(5-chloro-6-oxo-1,6-dihydropyridazin-4-yl)pyrrolidin-3-yl)carbamate]
17 | 0.001 to 10 µM | COC(=O)C12CCC(NC(=O)O[C@@H]3CCN(c4cn[nH]c(=O)c4Cl)C3)(CC1)CC2 [P-0120, methyl (R)-4-((((1-(5-chloro-6-oxo-1,6-dihydropyridazin-4-yl)pyrrolidin-3-yl)oxy)carbonyl)amino)bicyclo [2.2.2]octane-1-carboxylate]
18 | 10 to 100 µM | COc1cccc(NC(=O)N[C@@H]2CCN(c3cn[nH]c(=O)c3Cl)C2)c1 [P-0033, (R)-1-(1-(5-chloro-6-oxo-1,6-dihydropyridazin-4-yl)pyrrolidin-3-yl)-3-(3-methoxyphenyl)urea]
19 | 0.001 to 10 µM | N#Cc1ccc(NC(=O)N[C@@H]2CCN(c3cn[nH]c(=O)c3Cl)C2)cc1 [P-0042, (R)-1-(1-(5-chloro-6-oxo-1,6-dihydropyridazin-4-yl)pyrrolidin-3-yl)-3-(4-cyanophenyl)urea]
20 | 0.001 to 10 µM | Cc1noc(C)c1NC(=O)N[C@@H]1CCN(c2cn[nH]c(=O)c2Cl)C1 [P-0027, (R)-1-(1-(5-chloro-6-oxo-1,6-dihydropyridazin-4-yl)pyrrolidin-3-yl)-3-(3,5-dimethylisoxazol-4-yl)urea]
21 | 0.001 to 10 µM | O=C(NCC1CCOC1)N[C@@H]1CCN(c2cn[nH]c(=O)c2Cl)C1 (stereo partly drawn) [P-0005, 1-((R)-1-(5-chloro-6-oxo-1,6-dihydropyridazin-4-yl)pyrrolidin-3-yl)-3-((tetrahydrofuran-3-yl)methyl)urea]
22 | 0.001 to 10 µM | CC(=O)N1CCC(NC(=O)N[C@@H]2CCN(c3cn[nH]c(=O)c3Cl)C2)CC1 [P-0071, (R)-1-(1-acetylpiperidin-4-yl)-3-(1-(5-chloro-6-oxo-1,6-dihydropyridazin-4-yl)pyrrolidin-3-yl)urea]
23 | 0.001 to 10 µM | CCS(=O)(=O)N1CCC(NC(=O)N[C@@H]2CCN(c3cn[nH]c(=O)c3Cl)C2)CC1 [P-0072, (R)-1-(1-(5-chloro-6-oxo-1,6-dihydropyridazin-4-yl)pyrrolidin-3-yl)-3-(1-(ethylsulfonyl)piperidin-4-yl)urea]
24 | 0.001 to 10 µM | O=C(Nc1ccsc1)N[C@@H]1CCN(c2cn[nH]c(=O)c2Cl)C1 [P-0013, (R)-1-(1-(5-chloro-6-oxo-1,6-dihydropyridazin-4-yl)pyrrolidin-3-yl)-3-(thiophen-3-yl)urea]
25 | 0.001 to 10 µM | Cc1c(N2CC[C@@H](NC(=O)OC3CCCCC3)C2)cn[nH]c1=O [P-0081, cyclohexyl (R)-(1-(5-methyl-6-oxo-1,6-dihydropyridazin-4-yl)pyrrolidin-3-yl)carbamate]
26 | 10 to 100 µM | O=C(NC1CCCC1)N[C@H]1CCN(c2cn[nH]c(=O)c2Cl)C1 [P-0023, (S)-1-(1-(5-chloro-6-oxo-1,6-dihydropyridazin-4-yl)pyrrolidin-3-yl)-3-cyclopentylurea]
27 | 10 to 100 µM | N#CC1(NC(=O)NC2CCCC2)CCN(c2cn[nH]c(=O)c2Cl)C1 (centres unmarked) [P-0073, 1-(1-(5-chloro-6-oxo-1,6-dihydropyridazin-4-yl)-3-cyanopyrrolidin-3-yl)-3-cyclopentylurea]
28 | 10 to 100 µM | O=C(Nc1cccnc1)N[C@@H]1CCN(c2cn[nH]c(=O)c2Cl)C1 [P-0009, (R)-1-(1-(5-chloro-6-oxo-1,6-dihydropyridazin-4-yl)pyrrolidin-3-yl)-3-(pyridin-3-yl)urea]
29 | 10 to 100 µM | Cc1n[nH]c(=O)c(Cl)c1N1CC[C@@H](NC(=O)NC2CCCCC2)C1 [P-0080, (R)-1-(1-(5-chloro-3-methyl-6-oxo-1,6-dihydropyridazin-4-yl)pyrrolidin-3-yl)-3-cyclohexylurea]
30 | 10 to 100 µM | CN(C(=O)NC1CCCC1)C1CCN(c2cn[nH]c(=O)c2Cl)C1 (centres unmarked) [P-0067, 1-(1-(5-chloro-6-oxo-1,6-dihydropyridazin-4-yl)pyrrolidin-3-yl)-3-cyclopentyl-1-methylurea]
31 | 0.001 to 10 µM | O=C(NC1CCOCC1)N[C@@H]1CCN(c2cn[nH]c(=O)c2Cl)C1 [P-0029, (R)-1-(1-(5-chloro-6-oxo-1,6-dihydropyridazin-4-yl)pyrrolidin-3-yl)-3-(tetrahydro-2H-pyran-4-yl)urea]
32 | 0.001 to 10 µM | O=C(Nc1cccc(OC(F)F)c1)N[C@@H]1CCN(c2cn[nH]c(=O)c2Cl)C1 [P-0044, (R)-1-(1-(5-chloro-6-oxo-1,6-dihydropyridazin-4-yl)pyrrolidin-3-yl)-3-(3-(difluoromethoxy)phenyl)urea]
